In ChEMBL document CHEMBL4229430, “Inducing protein-protein interactions with molecular glues” (Bioorg Med Chem Lett, 2018):
pKd: −log10 of the molar value.

How the values were obtained:
[1] = Binding affinity to tobacco 14-3-3epsilon T14-3eDC mutant expressed in Escherichia coli assessed as Kd for 14-3-3epsilon binding to H+-ATPase peptide motif by surface plasmon resonance assay; design: species or system Nicotiana tabacum
[2] = target: T1, 14-3-3 protein zeta/delta (Homo sapiens, UniProt P63104); assay: Binding affinity to human GST-tagged 14-3-3zeta expressed in Escherichia coli assessed as Kd for 14-3-3zeta binding to H+-ATPase peptide motif by isothermal titration calorimetric method
T1 sequence (P63104 whole entry): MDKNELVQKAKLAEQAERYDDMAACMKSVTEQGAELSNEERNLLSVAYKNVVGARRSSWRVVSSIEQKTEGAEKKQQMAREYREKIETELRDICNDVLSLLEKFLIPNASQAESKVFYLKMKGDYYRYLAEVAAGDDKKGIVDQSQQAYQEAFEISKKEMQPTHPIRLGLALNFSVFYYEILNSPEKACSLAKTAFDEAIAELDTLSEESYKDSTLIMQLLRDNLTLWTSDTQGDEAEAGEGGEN

Row | Compound | pKd [1] | pKd [2]
1 | CC(C)CC(NC(=O)[C@H](O)[C@H](N)Cc1ccccc1)C(=O)O (stereo partly drawn) | 5.74 | –
2 | C=CC(C)(C)OC[C@H]1O[C@H](O[C@@H]2C3=C([C@H](C)COC(C)=O)C[C@H](O)[C@]3(C)/C=C3/[C@@H](COC)CC[C@H]3[C@@H](C)[C@H]2O)[C@H](O)[C@@H](OC(C)=O)[C@@H]1O | – | 6.15
3 | O=C(C1=C(O)C(=O)N(c2ccc(O)c(C(=O)O)c2)C1c1ccc([N+](=O)[O-])cc1)c1ccccc1 (stereo not drawn) | 4.10 | –
